Where two headings read alike, the source gives them in different places.
Experiments:
IKKε = biological target: T1, IKKε (Homo sapiens, UniProt Q14164); assay: In-vitro IKKε kinase assay ([γ33]ATP filter-plate); type: biochemical
T1 construct: His-tag; made in house; host or cells: Sf9 insect cells
T1 sequence (Q14164 1-716): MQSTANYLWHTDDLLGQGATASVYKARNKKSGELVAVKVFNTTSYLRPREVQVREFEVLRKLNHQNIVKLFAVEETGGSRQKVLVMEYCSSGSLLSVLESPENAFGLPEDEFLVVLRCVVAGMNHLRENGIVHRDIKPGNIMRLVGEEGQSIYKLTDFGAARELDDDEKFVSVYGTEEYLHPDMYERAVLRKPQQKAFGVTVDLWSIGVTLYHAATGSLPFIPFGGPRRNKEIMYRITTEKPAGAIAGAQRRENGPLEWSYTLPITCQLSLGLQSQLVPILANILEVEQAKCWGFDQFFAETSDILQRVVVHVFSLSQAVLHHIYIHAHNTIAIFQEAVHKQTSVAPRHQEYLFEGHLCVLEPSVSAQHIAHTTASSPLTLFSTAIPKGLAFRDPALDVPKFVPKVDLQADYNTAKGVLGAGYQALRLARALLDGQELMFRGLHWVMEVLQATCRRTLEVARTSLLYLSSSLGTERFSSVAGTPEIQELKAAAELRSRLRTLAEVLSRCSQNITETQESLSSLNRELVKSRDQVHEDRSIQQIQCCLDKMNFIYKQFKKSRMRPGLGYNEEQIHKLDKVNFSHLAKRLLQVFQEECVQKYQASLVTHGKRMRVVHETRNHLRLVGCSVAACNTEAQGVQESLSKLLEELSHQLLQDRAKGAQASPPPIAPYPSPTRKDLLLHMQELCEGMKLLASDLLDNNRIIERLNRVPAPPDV
Procedure, shortened: (§1)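 His-tagged Sf9-expressed kinases at 0.1 or 0.02 μg/ml (TBK1) and 0.1 or 0.015 μg/ml (IKKε) for normal and sensitized formats, with myelin basic protein or casein substrate. ATP was at 2×Km (60 μM TBK1, 32 μM IKKε) plus 0.3 μCi [γ33]ATP. Reactions ran 30-45 min, were captured on P-81 filters, and counts were normalized to DMSO.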

TBK1 = biological target: T2, TBK1 (Homo sapiens, UniProt Q9UHD2); assay: In-vitro TBK1 kinase assay ([γ33]ATP filter-plate); type: biochemical
T2 construct: His-tag; made in house; host or cells: Sf9 insect cells
T2 sequence (Q9UHD2 1-729): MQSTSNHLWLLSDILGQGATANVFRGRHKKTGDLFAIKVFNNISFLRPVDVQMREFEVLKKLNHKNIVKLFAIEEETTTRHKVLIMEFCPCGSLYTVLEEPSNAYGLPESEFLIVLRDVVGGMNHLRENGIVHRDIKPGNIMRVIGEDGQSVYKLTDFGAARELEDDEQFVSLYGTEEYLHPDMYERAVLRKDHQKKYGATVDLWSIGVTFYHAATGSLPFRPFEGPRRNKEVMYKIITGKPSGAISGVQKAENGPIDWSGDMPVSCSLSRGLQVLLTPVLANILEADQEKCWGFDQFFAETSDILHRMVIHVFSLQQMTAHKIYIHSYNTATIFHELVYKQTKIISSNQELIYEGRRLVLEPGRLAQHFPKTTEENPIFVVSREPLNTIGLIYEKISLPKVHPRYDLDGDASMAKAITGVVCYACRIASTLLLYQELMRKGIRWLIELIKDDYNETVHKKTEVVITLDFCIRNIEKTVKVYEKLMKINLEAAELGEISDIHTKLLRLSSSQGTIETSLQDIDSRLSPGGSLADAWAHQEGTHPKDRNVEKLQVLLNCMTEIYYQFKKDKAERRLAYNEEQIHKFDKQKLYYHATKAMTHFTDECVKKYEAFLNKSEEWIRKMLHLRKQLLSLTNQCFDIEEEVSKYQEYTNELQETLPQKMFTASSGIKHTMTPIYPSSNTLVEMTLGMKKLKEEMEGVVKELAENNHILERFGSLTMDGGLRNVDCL
Procedure, shortened: as §1

[1] = text bins, read-out: IC50 for inhibition of the kinase activity of IKKε
[2] = text bins, read-out: IC50 for inhibition of the kinase activity of TBK1

Structure (SMILES) | IC50 (IKKε; [1]) | IC50 (TBK1; [2]) | IC50 (IKKε; Table 3, read-out: IKKε IC50) | IC50 (TBK1; Table 3, read-out: TBK1 IC50)
C[C@H](O)C(=O)N1CCC(COc2ccc(-c3ccnc(Nc4ccc(N5CCOCC5)cc4)n3)cc2C#N)CC1 [Example 152, 2-({1-[(2S)-2-hydroxypropanoyl]piperidin-4-yl}methoxy)-5-(2-{[4-(morpholin-4-yl)phenyl]amino}pyrimidin-4-yl)benzonitrile] | 5 to 50 nM | 10 to 100 nM |  | 
COc1cc(Nc2nccc(-c3ccc(OC4CCOCC4)c(C#N)c3)n2)ccc1S(=O)(=O)NCCCO [Example 155, 4-({4-[3-cyano-4-(tetrahydro-2H-pyran-4-yloxy)phenyl]pyrimidin-2-yl}amino)-N-(3-hydroxypropyl)-2-methoxybenzene-sulfonamide] | < 5 nM | < 10 nM |  | 
N#Cc1cc(-c2ccnc(Nc3ccc(N4CCOCC4)cc3)n2)ccc1OCC1CCOCC1 [Example 158, 5-(2-{[4-(morpholin-4-yl)phenyl]amino}pyrimidin-4-yl)-2-(tetrahydro-2H-pyran-4-ylmethoxy) benzonitrile] | < 5 nM | < 10 nM |  | 
CC(C)(C)Oc1ccc(-c2ccnc(Nc3ccc(N4CCOCC4)cc3)n2)cc1C#N [Example 164, 2-tert-Butyoxy-5-(2-{[4-(morpholin-4-yl)phenyl]amino}pyrimidin-4-yl)benzonitrile] | < 5 nM | < 10 nM |  | 
N#Cc1cc(-c2ccnc(Nc3ccc(N4CCOCC4)cc3)n2)ccc1OC1CCCCC1 [Example 165, 2-(Cyclohexyloxy)-5-(2-{[4-(morpholin-4-yl)phenyl]amino}pyrimidin-4-yl)benzonitrile] | < 5 nM | < 10 nM |  | 
N#Cc1cc(-c2ccnc(Nc3ccc(N4CCOCC4)cc3)n2)ccc1OCc1cccnc1 [Example 168, 5-(2-{[4-(Morpholin-4-yl)phenyl]amino}pyrimidin-4-yl)-2-(pyridin-3-ylmethoxy) benzonitrile] | 5 to 50 nM | < 10 nM |  | 
COc1ccc(Nc2nccc(-c3ccc(OC(C)(C)C)c(C#N)c3)n2)cc1OC [Example 169, 2-tert-Butoxy-5-{2-[(3,4-dimethoxyphenyl)amino]pyrimidin-4-yl}benzonitrile] | 5 to 50 nM | 10 to 100 nM |  | 
CS(=O)(=O)N1CCC(Nc2ccc(Nc3nccc(-c4ccc(OC5CCOCC5)c(C#N)c4)n3)cc2)CC1 [Example 171, 5-{2-[(4-{[1-(methylsulfonyl)piperidin-4-yl]amino}phenyl)amino]pyrimidin-4-yl}-2-(tetrahydro-2H-pyran-4-yloxy)benzonitrile] | < 5 nM | < 10 nM |  | 
COc1cc(C#N)cc(-c2ccnc(Nc3ccc(OC)c(OC)c3)n2)c1 [Example 172, 3-{2-[(3,4-Dimethoxyphenyl)amino]pyrimidin-4-yl}-5-methoxybenzonitrile] | 5 to 50 nM | 10 to 100 nM |  | 
CS(=O)(=O)NCCOc1ccc(-c2ccnc(Nc3ccc(N4CCOCC4)cc3)n2)cc1C#N [Example 177, N-{2-[2-cyano-4-(2-{[4-(morpholin-4-yl)phenyl]amino}pyrimidin-4-yl)phenoxy]ethyl} methanesulfonamide] | 5 to 50 nM | 10 to 100 nM |  | 
N#Cc1cc(-c2ccnc(Nc3ccc(N4CCOCC4)cc3)n2)ccc1OCc1ccccc1 [Example 179, 2-(Benzyloxy)-5-(2-{[4-(morpholin-4-yl)phenyl]amino}pyrimidin-4-yl)benzonitrile] | 5 to 50 nM | 10 to 100 nM |  | 
N#Cc1cc(-c2ccnc(Nc3ccc(N4CCOCC4)cc3)n2)ccc1OCCCNC(=O)CO [Example 181, N-{3-[2-cyano-4-(2-{[4-(morpholin-4-yl)phenyl]amino}pyrimidin-4-yl)phenoxy]propyl}-2-hydroxyacetamide] | < 5 nM | < 10 nM |  | 
CN(C)CC(=O)Nc1ccc(Nc2nccc(-c3cccc(C#N)c3)n2)cc1 [Example 183] | 50 to 500 nM | 10 to 100 nM |  | 
N#Cc1cc(-c2ccnc(Nc3ccc(N)cc3)n2)ccc1OC1CCOCC1 [Example 184, 5-{2-[(4-Aminophenyl)amino]pyrimidin-4-yl}-2-(tetrahydro-2H-pyran-4-yloxy)benzonitrile] | < 5 nM | < 10 nM |  | 
COc1cc(Nc2nccc(-c3ccc(OC4CCNCC4)c(C#N)c3)n2)ccc1N1CCOCC1 [Example 186, 5-(2-{[3-methoxy-4-(morpholin-4-yl)phenyl]amino}pyrimidin-4-yl)-2-(piperidin-4-yloxy)benzonitrile] | 5 to 50 nM | 10 to 100 nM |  | 
N#Cc1cc(-c2ccnc(Nc3ccc(N4CCOCC4)cc3)n2)ccc1OC1CCN(C=O)C1 (stereo not shown) [Example 187, 2-[(1-formylpyrrolidin-3-yl)oxy]-5-(2-{[4-(morpholin-4-yl)phenyl]amino}pyrimidin-4-yl)benzonitrile] | 5 to 50 nM | < 10 nM |  | 
N#Cc1cc(-c2ccnc(Nc3ccc(N4CCOCC4)cc3)n2)ccc1OC1CCN(C(=O)C2(N)CC2)C1 (stereo not shown) [Example 189, 2-({1-[(1-aminocyclopropyl)carbonyl]pyrrolidin-3-yl}oxy)-5-(2-{[4-(morpholin-4-yl)phenyl]amino}pyrimidin-4-yl)benzonitrile] | 50 to 500 nM | 100 to 500 nM |  | 

Second part, the compound after the results:

IC50 (IKKε; [1]) | IC50 (TBK1; [2]) | IC50 (IKKε; Table 3, read-out: IKKε IC50) | IC50 (TBK1; Table 3, read-out: TBK1 IC50) | Structure (SMILES)
< 5 nM | < 10 nM | 0.4 nM | 0.3 nM | N#Cc1cc(-c2ccnc(Nc3ccc(N4CCOCC4)cc3)n2)ccc1OC1CCN(C(=O)CO)CC1 [Example 190, 2-{[1-(Hydroxyacetyl)piperidin-4-yl]oxy}-5-(2-{[4-(morpholin-4-yl)phenyl]amino}pyrimidin-4-yl)benzonitrile]
< 5 nM | < 10 nM |  |  | CC(C)Oc1ccc(-c2ccnc(Nc3ccc(N4CCOCC4)cc3)n2)cc1C#N [Example 191, 5-(2-{[4-(Morpholin-4-yl)phenyl]amino}pyrimidin-4-yl)-2-(propan-2-yloxy)benzonitrile]
5 to 50 nM | < 10 nM |  |  | N#Cc1cc(-c2ccnc(Nc3ccc(N4CCOCC4)cc3)n2)ccc1OC1CCNCC1 [Example 194, 5-(2-{[4-(Morpholin-4-yl)phenyl]amino}pyrimidin-4-yl)-2-(piperidin-4-yloxy)benzonitrile]
5 to 50 nM | 10 to 100 nM |  |  | N#Cc1cccc(-c2ccnc(Nc3cccc(NC(=O)NC4CCCC4)c3)n2)c1 [Example 201, 1-(3-{[4-(3-Cyanophenyl)pyrimidin-2-yl]amino}phenyl)-3-cyclopentylurea]
5 to 50 nM | 10 to 100 nM |  |  | N#Cc1cc(-c2ccnc(Nc3ccc(N4CCOCC4)cc3)n2)ccc1OCC1CCCCO1 (stereo not shown) [Example 205, 5-(2-{[4-(Morpholin-4-yl)phenyl]amino}pyrimidin-4-yl)-2-(tetrahydro-2H-pyran-2-ylmethoxy) benzonitrile]
5 to 50 nM | < 10 nM |  |  | CN(C)C(=O)CCNc1ccc(Nc2nccc(-c3ccc(OC4CCOCC4)c(C#N)c3)n2)cc1 [Example 209, N~3~-[4-({4-[3-cyano-4-(tetrahydro-2H-pyran-4-yloxy)phenyl]pyrimidin-2-yl}amino)phenyl]-N,N-dimethyl-beta-alaninamide]
< 5 nM | < 10 nM |  |  | N#Cc1cc(-c2ccnc(Nc3ccc(N4CCOCC4)cc3)n2)ccc1OCCCO [Example 210, 2-(3-Hydroxypropoxy)-5-(2-{[4-(morpholin-4-yl)phenyl]amino}pyrimidin-4-yl)benzonitrile]
< 5 nM | < 10 nM |  |  | CC(C)Nc1ccc(-c2ccnc(Nc3ccc(N4CCOCC4)cc3)n2)cc1C#N [Example 211, 5-(2-{[4-(Morpholin-4-yl)phenyl]amino}pyrimidin-4-yl)-2-(propan-2-ylamino)benzonitrile]

From patent US20150352108A1, “AMINO-PYRIMIDINE COMPOUNDS AS INHIBITORS OF TBK1 AND/OR IKK EPSILON” (Alzheimer's Institute of America, priority 2009, published 2015)
